Measured values as given in patent US20230321045A1 (priority 2022, published 2023).
Entries after “also recorded” stand apart in the source; their conditions may differ. Like-named read-outs stand apart in the source and are kept apart here.

Experiments:
[1] = tested on: vaccinia virus; type: cell-based
[2] = tested on: vaccinia virus; type: cell-based; remark: listed apart in the source
[3] = tested on: BSC40 cells
[4] = tested on: H1N1 (PR8); parameters: species or system female Balb/c mice; conditions: mouse, in vivo
[5] = tested on: H1N1 (PR8); parameters: species or system female Balb/c mice; conditions: mouse, in vivo; remark: listed apart in the source
[6] = tested on: H1N1 (PR8); parameters: species or system female Balb/c mice; conditions: mouse, in vivo; remark: listed apart in the source
[7] = tested on: H1N1 (PR8); parameters: species or system female Balb/c mice; conditions: mouse, in vivo; remark: listed apart in the source

With `COc1cc(C(=O)c2cnc(-c3c[nH]c4ccccc34)[nH]2)cc(OC)c1OC.Cl` [17ya hydrochloride salt] the “release of extracellular enveloped virus (EEV) from infected cells” value [1] was “dose dependent inhibition of virus released”, the “virus associated with the infected cells (IMV)” value [1] was “not a good correlation between the amount of drug and the amount of virus produced” and the IC50 ([1]; read-out: IC50, virus released into the media (EEV)) was 24.3 nM. For the same compound, the IC90 ([1]; read-out: IC90, virus released into the media (EEV)) was 37.8 nM, the “vaccinia virus cell-to-cell spread” value [2] was “clear dose-dependent response” and the IC50 ([2]; read-out: IC50, vaccinia virus cell-to-cell spread) was 15.7 nM. The IC90 ([2]; read-out: IC90, vaccinia virus cell-to-cell spread) was 27 nM and the “toxicity to BSC40 cells” value [3] was “showed a dose response for toxicity”.

In the case of `C[C@@H]1C[C@H]2[C@@H]3CCC4=CC(=O)C=C[C@]4(C)[C@@]3(F)[C@@H](O)C[C@]2(C)[C@@]1(O)C(=O)CO` [Dexamethasone], the “BAL cell counts: Eosinophils” value [4] is reported as 0.03 million/animal, the “BAL cell counts: Lymphocytes” value [4] is reported as 0.15 million/animal and the “BAL cell counts: Mononuclear cells” value [4] is reported as 0.02 million/animal. The “BAL cell counts: Neutrophils” value [4] was 0.34 million/animal, the “BAL cell counts: Totals” value [4] was 0.54 million/animal and the “BAL Cytokine level: IFN-γ” value [5] was 4.80 ± pg/ml. The “BAL Cytokine level: IL-6” value [5] was 351.37 ± pg/ml, the “BAL Cytokine level: IP-10” value [5] was 1102.42 pg/mL and the “BAL Cytokine level: KC” value [5] was 854.41 pg/mL. The “BAL Cytokine level: TNF-α” value [5] was 24.08 pg/mL, the “change in CXCL-10 in BAL fluid” value [5] was −8% and the “change in Interferon-γ (INF-γ) in BAL fluid” value [5] was −81%. The “change in Interleukin-6 (IL-6) in BAL fluid” value [5] was −52%, the “change in Keratinocyte-derived chemokine (KC) in BAL fluid” value [5] was “+20%” and the “change in TNF-α in BAL fluid” value [5] was −13%.

In the case of `CCOC(=O)C1=C[C@@H](OC(CC)CC)[C@H](NC(C)=O)[C@@H](N)C1` [Oseltamivir], the “body weight gain / body weight loss vs H1N1 vehicle control group” value [6] is reported as “statistically significantly higher (p<0.01) body weight gain from Day 6 to Day 11; also recorded: attenuated the clinical signs and bodyweight loss”, the “clinical signs associated with H1N1 infection” value [6] is reported as “attenuation of the clinical signs; also recorded: attenuated the clinical signs” and the “BAL cell counts: Eosinophils” value [4] is reported as 0.01 ± million/animal. For the same compound, the “BAL cell counts: Lymphocytes” value [4] was 0.09 ± million/animal, the “BAL cell counts: Mononuclear cells” value [4] was 0.01 ± million/animal and the “BAL cell counts: Neutrophils” value [4] was 0.15 ± million/animal. For the same compound, the “BAL cell counts: Totals” value [4] was 0.27 ± million/animal, the “BAL total and differential cells compared to the H1N1 control group” value [4] was “statistically significantly (p<0.01) lower BAL total cells, neutrophils, eosinophils, lymphocytes, and mononuclear cells” and the “BAL Cytokine level: IFN-γ” value [5] was 2.78 ± pg/ml. For the same compound, the “BAL Cytokine level: IL-6” value [5] was 31.01 ± pg/ml, the “BAL Cytokine level: IP-10” value [5] was 147.64 ± pg/ml and the “BAL Cytokine level: KC” value [5] was 88.29 ± pg/ml. For the same compound, the “BAL cytokine levels compared to the H1N1 control group” value [5] was “statistically significantly (p<0.01) lower TNFα, IFNγ, IL-6, KC, and IP-10; also recorded: statistically significantly lower BAL total cells, neutrophils, eosinophils, lymphocytes, mononuclear cells BAL IFNγ, IL-6, IP-10, KC and TNFα” and the “H1N1 induced higher PenH” value [7] was “completely attenuated H1N1 induced higher PenH”.
